Target: SspH1 (161–700) (Salmonella typhimurium, UniProt D0ZVG2)
Assay: Round 1 intact protein LC-MS covalent fragment labelling screen and dilution series
Format: binding
Parameters: Recombinant IpaH9.8 (21–545) and SspH1 (161–700) were incubated at 0.5 μM; His-tag (N, cleaved yes); made in house; host or cells: E. coli BL21
Conditions: round 1 screen; 0.5 μM SspH1, 50 μM fragments, 24 hours at 4 °C
Protocol: A diverse library of 227 compounds with chloroacetamide warheads, featuring a diversity of molecular weight (162–321 Da) and clog P (−1.4 to 3.4) (Table S1), were screened against Salmonella and Shigella NEL E3 ligases using our intact protein liquid chromatography mass spectrometry (LC-MS) platform as previously described.[39,40] Briefly, recombinant SspH1 (161–700[30]) and IpaH9.8 (21–545[29]) (Fig. 1A and B) were incubated with 50 μM fragments for 24 hours at 4 °C before analysis by LC-MS (Fig. 1C). Raw counts were deconvoluted and the labelling percentage calculated by detection and comparison of protein and protein-fragment molecular weights.
Fig. 1 Intact protein LCMS screening of covalent fragment library against NEL proteins. (A) Cartoon depicting conserved NEL E3 ligase domains; (B) overlaid structures of SspH1 (blue, PDB 9H6W[30]) and IpaH9.8 (green, PDB 6LOL[29]) aligned on NEL domain; (C) workflow of covalent fragment screening using intact LC-MS; (D) fragment labelling percentages for SspH1 and IpaH9.8 with fragments 1–3 highlighted. Recombinant IpaH9.8 (21–545) and SspH1 (161–700) were incubated at 0.5 μM with 50 μM fragments for 24 hours at 4 °C, before fragment labelling was analysed by intact LC-MS; (E) chemical structures of fragments 1–3.
We next analysed the potency of compounds 4–10 against SspH1. The seven compounds were obtained as purified compounds (Table S2) and screened against SspH1 by intact LC-MS (Fig. 3A) with two-fold serial dilution (100–6.25 μM). To confirm which of the two cysteines in the SspH1 161–700 construct were labelled, we repeated the concentration response experiment with a catalytic cysteine mutant of SspH1 (C492K) (Fig. 3B). The complete abrogation of labelling confirmed that all […] compounds labelled the catalytic cysteine of SspH1.
1 μM IpaH9.8 or SspH1 were incubated with […] fragments for 24 hours at 4 °C, in 25 mM HEPES pH 7.5, 50 mM NaCl buffer. Intact protein LC-MS was performed as previously described.[40] The following deconvolution conditions were used for recombinant proteins studied in this work:
Dilution series experiments were performed as for 1st round screening. 1 μM OTUD4, OTUD5 or 0.5 μM HOIL, UbcH5A, SspH2, SspH1 C492K were incubated with 100–6.25 μM compounds for 24 hours at 4 °C, in 25 mM HEPES pH 7.5, 50 mM NaCl buffer. Intact protein LC-MS was performed as previously described.[40] The following deconvolution conditions were used for recombinant proteins studied in this work: […]

SspH1 (161–700), sequence (D0ZVG2 161-700): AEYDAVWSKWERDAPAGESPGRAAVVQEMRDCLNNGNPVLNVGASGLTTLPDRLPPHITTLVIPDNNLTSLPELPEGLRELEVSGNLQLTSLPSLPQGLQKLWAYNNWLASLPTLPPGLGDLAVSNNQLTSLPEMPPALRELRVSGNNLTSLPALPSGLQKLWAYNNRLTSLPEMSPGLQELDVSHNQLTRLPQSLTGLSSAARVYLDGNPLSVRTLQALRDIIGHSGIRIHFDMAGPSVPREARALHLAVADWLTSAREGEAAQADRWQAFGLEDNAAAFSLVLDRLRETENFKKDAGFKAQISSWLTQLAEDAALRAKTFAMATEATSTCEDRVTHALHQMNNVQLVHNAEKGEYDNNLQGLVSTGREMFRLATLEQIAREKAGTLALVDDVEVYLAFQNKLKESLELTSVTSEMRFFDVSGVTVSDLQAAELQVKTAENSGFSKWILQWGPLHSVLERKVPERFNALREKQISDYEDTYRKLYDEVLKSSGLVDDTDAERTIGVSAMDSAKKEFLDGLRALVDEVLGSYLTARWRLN

| SMILES | protein labelling percentage |
| --- | --- |
| O=C(CCl)N1CCCN(C(=O)c2ccc(Cl)cc2)CC1 [fragment 1] | greater than 30% |
| Cl.O=C(CCl)N1CCC(n2nc3ccccc3n2)CC1 [fragment 2] | greater than 30% |
| Cc1cccn2cc(CCNC(=O)CCl)nc12.Cl [fragment 3] | greater than 30% |

From article PMC12584752, “Covalent fragment screening to inhibit the E3 ligase activity of bacterial NEL enzymes SspH1 and SspH2” (RSC Chemical Biology, 2025)
